Bounds are passed on as bounds.

In one assay the test system is NCI-H295R. As to the kind of experiment: IC50 (antiproliferative, ATP content). To be noted: 48 h. The method in brief: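 Compounds were pin-transferred at 8 final concentrations between 0.6 nM and 46 µM onto adrenocortical carcinoma cells (1500 per well, 1536-well plates) that had been cultured overnight in serum-free DMEM with ITS. Plates then stood 48 h at 37 °C, 5% CO2, and ATP was detected by CellTiter-Glo luminescence. IC50 was derived from logistic fits of normalised signal, and compounds giving no concentration response were noted as above the top dose.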
What is called IC50 is the midpoint of a concentration-inhibition curve. The compound `O=C([O-])c1ccc(NC(=O)[C@H](Cc2ccc(O)cc2)NC(=O)c2ccccc2)cc1.[Na+]` registered a 50% inhibitory concentration (IC50) of over 46 µM.

For `Cc1nc[nH]c1CN1CCc2c(c3ccccc3n2C)C1=O.Cl`, the IC50 was over 46 µM. Same read-out and setting: for `Nc1c(CC(=O)[O-])cccc1C(=O)c1ccc(Br)cc1.Nc1c(CC(=O)[O-])cccc1C(=O)c1ccc(Br)cc1.O.O.O.[Na+].[Na+]` the value was over 46 µM; for `C[S+](CC[C@H](N)C(=O)O)C[C@H]1O[C@@H](n2cnc3c(N)ncnc32)[C@H](O)[C@@H]1O.[Cl-]` (some centres undefined), over 46 µM.

`Cl.NCCO/C=C/[C@H](N)C(=O)O` registered an IC50 of over 46 µM. Still for that read-out and setting: for `CC[n+]1c(-c2ccccc2)c2cc(N)ccc2c2ccc(N)cc21.[Br-]` the value was over 46 µM. Same read-out and setting: for `Cc1ccccc1CNc1ncnc2c1ncn2[C@@H]1O[C@H](CO)[C@@H](O)[C@H]1O` the value was over 46 µM; for `C[C@H](O)[C@H](O)[C@H]1CNc2[nH]c(N)nc(=O)c2N1.Cl.Cl`, over 46 µM; for `CN(C)C(=O)C(CCN1CCC(O)(c2ccc(Cl)cc2)CC1)(c1ccccc1)c1ccccc1`, over 46 µM.

For the compound `CCN1CCCC(OC(=O)C(c2ccccc2)c2ccccc2)C1.Cl` (centres undefined), the IC50 is over 46 µM. `CN(C)[C@@H]1C(O)=C(C(N)=O)C(=O)[C@@]2(O)C(O)=C3C(=O)c4c(O)ccc(Cl)c4[C@@H](O)[C@H]3C[C@@H]12.Cl` had a half-maximal inhibitory concentration (IC50) of over 46 µM. The same measure, in the same setting: for `NC1=NC=NC2=C1N=CN2[C@@H]3O[C@H](COP(OP(OC[C@H]4O[C@@H]([N@@+]5=CC=CC(C(N)=O)=C5)[C@H](O)[C@@H]4O)([O-])=O)(O)=O)[C@@H](O)[C@H]3O` the value was over 46 µM; for `NCCC[C@H](N)CC(=O)N[C@H]1CNC(=O)[C@H]([C@H]2C[C@H](O)N=C(N)N2)NC(=O)/C(=C/NC(N)=O)NC(=O)[C@H](CO)NC(=O)[C@H](CO)NC1=O.O=S(=O)(O)O`, over 46 µM; for `COc1ccc(CCN(C)CCCN2CCc3cc(OC)c(OC)cc3CC2=O)cc1OC.Cl`, over 46 µM. On the same count and under the same terms, for `CC1(C)CO[C@@H](CC(=O)O)CN1` the value was over 46 µM; for `CCCCCCCCCCCCCCCCN`, over 46 µM. On the same count and under the same terms, for `Nc1c2c(nc3ccccc13)CCCC2O.O=C(O)/C=C\C(=O)O` (centres undefined) the value was over 46 µM; for `C[C@@H](CN(C)C)CN1c2ccccc2Sc2ccccc21.C[C@@H](CN(C)C)CN1c2ccccc2Sc2ccccc21.O=C(O)[C@@H](O)[C@@H](O)C(=O)O`, over 46 µM.

Take `CC(C(=O)O)c1ccc2c(c1)[nH]c1ccc(Cl)cc12` (centres undefined): the IC50 was over 46 µM.

For `COc1ncnc(NS(=O)(=O)c2ccc(N)cc2)c1OC`, the IC50 was over 46 µM. Still for that read-out and setting: for `CNC(=NC#N)NCCSCc1nc[nH]c1C` the value was over 46 µM; for `O=[N+]([O-])c1cccc(S(=O)(=O)NCCNS(=O)(=O)c2cccc([N+](=O)[O-])c2)c1`, over 46 µM; for `c1ccc2c(c1)Nc1ccccc1S2`, over 46 µM. Still for that read-out and setting: for `C#CCN(C)[C@H](C)Cc1ccccc1.Cl` the value was over 46 µM. Still for that read-out and setting: for `NC(=O)c1cc[n+](CC2=C(C(=O)[O-])N3C(=O)[C@@H](NC(=O)Cc4cccs4)[C@H]3SC2)cc1` the value was over 46 µM. In the case of `C[C@@H]1CN([C@H]2CC[C@](C#N)(c3ccc(F)cc3)CC2)CC[C@]1(C(=O)O)c1ccccc1.Cl`, the IC50 is over 46 µM. The compound `Cc1nnc2n1-c1ccc(Cl)cc1C(c1ccccc1Cl)=NC2` displayed an IC50 of over 46 µM. The compound `COc1ccc2c(c1OC)C(=O)O[C@H]2[C@@H]1c2cc3c(cc2CCN1C)OCO3` gave an IC50 of over 46 µM. Still for that read-out and setting: for `C=CCCCCCCCCC(=O)O` the value was over 46 µM.

Take `CC(=O)OO`: the IC50 was over 46 µM. Still for that read-out and setting: for `O=C(N[C@@H](CO)C(N[C@H](C(N[C@H](COC(C)(C)C)C(N[C@@H](CC(C)C)C(N[C@@H](CCCNC(N)=N)C(N6[C@H]([C@@](NNC(N)=O)=O)CCC6)=O)=O)=O)=O)CC4=CC=C(O)C=C4)=O)[C@@H](NC([C@@H](N[C@@]([C@@H](N5)CCC5=O)=O)CC3=CNC=N3)=O)CC1=CNC2=C1C=CC=C2.O=C(C)O` the value was over 46 µM. Still for that read-out and setting: for `CCC(=O)Nc1ccc(O)cc1` the value was over 46 µM.

Regarding `C/C(=C\C(=O)OCCCCCCCCC(=O)O)C[C@@H]1OC[C@H](C[C@@H]2O[C@H]2[C@@H](C)[C@H](C)O)[C@@H](O)[C@H]1O`, the IC50 was over 46 µM. On the same count and under the same terms, for `C(=Cc1ccncc1)c1ccccc1` the value was over 46 µM; for `COc1ccccc1OCC(O)CN1CCN(CC(=O)Nc2c(C)cccc2C)CC1` (centres undefined), over 46 µM. `CS(=O)(=O)Nc1ccc([N+](=O)[O-])cc1Oc1ccccc1`: the IC50 was over 46 µM.

`Cl.c1ccc(CC2=NCCN2)cc1` had a half-maximal inhibitory concentration (IC50) of over 46 µM. Still for that read-out and setting: for `CC(=O)NC(=O)c1ccccc1O` the value was over 46 µM; for `COC1[C@@H](O[C@@H]2O[C@H](C)[C@@H](O[C@H]3C[C@@](C)(O)[C@H](OC(=O)CC(C)C)[C@H](C)O3)[C@H](N(C)C)[C@H]2O)[C@@H](CC=O)C[C@@H](C)[C@@H](O)/C=C/C=C/C[C@@H](C)OC(=O)C[C@H]1OC(C)=O` (some centres undefined), over 46 µM; for `O=[C@](CO)[C@]([C@H]2C1)(O[C@@](CCC)([H])O2)[C@](C[C@@H]3O)(C)[C@@]1([C@@]([C@@]([C@](C)4C=C5)3[H])(CCC4=CC5=O)[H])[H]`, over 46 µM.

Turning to `CN(C)CCC(O)(c1ccccc1)c1ccccc1Cl` (centres undefined), the IC50 is over 46 µM. On the same count and under the same terms, for `CN1C(=O)CC(c2ccccc2)C1=O` (centres undefined) the value was over 46 µM. In the case of `Cc1c(C)n(Cc2ccccc2)c2ccc(C(=O)OCCN(C)C)cc12`, the concentration for half-maximal inhibition (IC50) is over 46 µM.

In the next assay the test system is NCI-H295R. As to the kind of experiment: maximal response (efficacy) relative to DMSO (0%) and doxorubicin (-100%); higher = less growth inhibition. To be noted: 48 h.
Consider `Cc1c(C(=O)O)c(O)cc2c1C(=O)c1c(O)c([C@@H]3O[C@H](CO)[C@@H](O)[C@H](O)[C@H]3O)c(O)c(O)c1C2=O`, for which the maximal response was -50.2%. Same read-out and setting: for `CCc1oc2ccccc2c1C(=O)c1cc(Br)c(O)c(Br)c1` the value was -59.3%. The same measure, in the same setting: for `COc1cc(CNC(=O)CCCC/C=C/C(C)C)ccc1O` the value was -21.6%. The same measure, in the same setting: for `COC(=O)C1=C(C)NC(C)=C(C(=O)OC(C)(C)CN(C)CCC(c2ccccc2)c2ccccc2)C1c1cccc([N+](=O)[O-])c1.Cl` (centres undefined) the value was -45.6%; for `Oc1ccc(Cl)c2cccnc12`, -33.2%.

In the case of `CCCCN(CCCC)CC(O)c1cc(Cl)cc2c1-c1ccc(Cl)cc1/C2=C/c1ccc(Cl)cc1` (centres undefined), the maximal response was -31.5%.

Take `OC[C@H]1O[C@@H](n2cnc3c(O)ncnc32)[C@H](O)[C@@H]1O`: the maximal response is 26.5%. The same measure, in the same setting: for `O[C@@]3(C#C)CC[C@H]2[C@@H]4CC/C1=C/c5oncc5C[C@]1(C)[C@H]4CC[C@@]23C` the value was -27.4%. `COC(=O)C1=C(C)NC(C)=C(C(=O)OCC(C)C)C1c1ccccc1[N+](=O)[O-]` (centres undefined): the maximal response is -32.8%.

On to `O=C(NC(=O)c1c(F)cccc1F)Nc1ccc(Cl)c(Oc2ncc(C(F)(F)F)cc2Cl)c1`, for which the maximal response was -39.7%.

As for `O=C2O[C@](C#CC3CC3)([C@](F)(F)F)C1=CC(Cl)=CC=C1N2`, the maximal response is -38%. As to `COCc1c(C(C)C)nc(C(C)C)c(/C=C/[C@@H](O)C[C@@H](O)CC(=O)[O-])c1-c1ccc(F)cc1.[Na+]`, the maximal response was -23.2%. Same read-out and setting: for `Nc1c(/N=N/c2ccc(-c3ccc(/N=N/c4cc(S(=O)(=O)[O-])c5ccccc5c4N)cc3)cc2)cc(S(=O)(=O)[O-])c2ccccc12.[Na+].[Na+]` the value was -53.2%; for `CC(C)[C@H](N)C(=O)OCC(CO)OCn1cnc2c(=O)nc(N)[nH]c21.Cl` (some centres undefined), -28.1%. For the compound `CC[C@@]1([C@@H]2O[C@@H]([C@H]3O[C@@](O)(CO)[C@H](C)C[C@@H]3C)C[C@@H]2C)CC[C@H]([C@]2(C)CC[C@]3(C[C@H](O)[C@@H](C)[C@@H]([C@@H](C)[C@@H](OC)C(C)C(=O)[O-])O3)O2)O1.[Na+]` (some centres undefined), the maximal response is -50.4%.

Consider `F\C1=C\N(C(=O)NC1=O)[C@H]2C[C@H](O)[C@@H](CO)O2`, for which the maximal response is -37.6%. Same read-out and setting: for `O=[N+]([O-])c1c(Cl)cccc1-c1c[nH]cc1Cl` the value was -29.2%; for `C[C@]12C/C(=C/O)C(=O)C[C@@H]1CC[C@@H]1[C@@H]2CC[C@@]2(C)[C@H]1CC[C@]2(C)O`, -34.1%; for `COC1=CC(=O)C[C@@H](C)[C@]12Oc1c(Cl)c(OC)cc(OC)c1C2=O`, -30.5%. Take `COC(=O)Nc1nc2cc(Sc3ccccc3)ccc2[nH]1`: the maximal response was -54.1%. Still for that read-out and setting: for `CCC(NC(C)C)C(O)c1ccc(O)c(O)c1.CS(=O)(=O)O` (centres undefined) the value was -36%; for `CN(CC=CC#CC(C)(C)C)Cc1cccc2ccccc12`, -34.4%. Still for that read-out and setting: for `COc1c(C)c2c(c(O)c1C/C=C(\C)CCC(=O)O)C(=O)OC2` the value was -29.5%. On the same count and under the same terms, for `O[C@@H]1C4=C(C)[C@@H](OC([C@H](O)[C@H]([C@@]6=CC=CC=C6)NC(OC(C)(C)C)=O)=O)C[C@@](C(C)4C)(O)[C@@H](OC(C5=CC=CC=C5)=O)[C@@]([C@]2(OC(C)=O)CO[C@@H]2C[C@@H]3O)([H])[C@]3(C)C1=O` the value was -59.5%; for `CC(=O)[O][Co][N]1/C2=C(/C)C3=N/C(=C\C4=NC(=C(/C)C5=N[C@H]([C@H](CC(N)=O)[C@@]5(C)CCC(=O)NCC(C)OP(=O)(O)O[C@H]5[C@@H](O)[C@@H](n6cnc7cc(C)c(C)cc76)O[C@@H]5CO)[C@@]1(C)[C@@](C)(CC(N)=O)[C@@H]2CCC(N)=O)/[C@@H](CCC(N)=O)C4(C)C)[C@@H](CCC(N)=O)[C@]3(C)CC(N)=O` (some centres undefined), -34.1%; for `COCCOC(=O)C1=C(C)NC(C)=C(C(=O)OC/C=C/c2ccccc2)C1c1cccc([N+](=O)[O-])c1` (centres undefined), -49.9%.

Values taken from the supplement of paper PMC3493320.
